# Data: PubChem BioAssay (NCI)
# “And” between values parts separate entries of the source, which are not always exact repeats. Equal values may be shown once.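 Where inhibition never reached the appropriate level, the endpoint shown equals the highest concentration tested. Otherwise, values were interpolated linearly from a five-concentration, 48-hour dose response in 96-well plates. Here, GI50 denotes the concentration required for 50% inhibition of growth. TGI: total growth inhibition.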
# Experiments:
# Assay in all cases: growth of human tumour cells (NCI), 48 h
# 786-0 renal = system: 786-0 renal
# A498 renal = system: A498 renal
# A549 NSCLC = system: A549 NSCLC
# ACHN renal = system: ACHN renal
# BT-549 breast = system: BT-549 breast
# CAKI-1 renal = system: CAKI-1 renal
# CCRF-CEM leukemia = system: CCRF-CEM leukemia
# COLO 205 colon = system: COLO 205 colon
# DU-145 prostate = system: DU-145 prostate
# EKVX NSCLC = system: EKVX NSCLC
# HCC-2998 colon = system: HCC-2998 colon
# HCT-116 colon = system: HCT-116 colon
# HCT-15 colon = system: HCT-15 colon
# HL-60(TB) leukemia = system: HL-60(TB) leukemia
# HOP-62 NSCLC = system: HOP-62 NSCLC
# HOP-92 NSCLC = system: HOP-92 NSCLC
# HS 578T breast = system: HS 578T breast
# HT29 colon = system: HT29 colon
# IGROV1 ovarian = system: IGROV1 ovarian
# K-562 leukemia = system: K-562 leukemia
# KM12 colon = system: KM12 colon
# LOX IMVI melanoma = system: LOX IMVI melanoma
# MALME-3M melanoma = system: MALME-3M melanoma
# MCF7 breast = system: MCF7 breast
# MDA-MB-231 breast = system: MDA-MB-231 breast
# MDA-MB-435 = system: MDA-MB-435
# MOLT-4 leukemia = system: MOLT-4 leukemia
# NCI-H226 lung = system: NCI-H226 lung
# NCI-H23 lung = system: NCI-H23 lung
# NCI-H460 lung = system: NCI-H460 lung
# NCI-H522 lung = system: NCI-H522 lung
# NCI/ADR-RES ovarian = system: NCI/ADR-RES ovarian
# OVCAR-3 ovarian = system: OVCAR-3 ovarian
# OVCAR-4 ovarian = system: OVCAR-4 ovarian
# OVCAR-5 ovarian = system: OVCAR-5 ovarian
# OVCAR-8 ovarian = system: OVCAR-8 ovarian
# PC-3 prostate = system: PC-3 prostate
# RPMI-8226 leukemia = system: RPMI-8226 leukemia
# RXF 393 renal = system: RXF 393 renal
# SF-268 CNS = system: SF-268 CNS
# SF-295 CNS = system: SF-295 CNS
# SF-539 CNS = system: SF-539 CNS
# SK-MEL-2 melanoma = system: SK-MEL-2 melanoma
# SK-MEL-28 melanoma = system: SK-MEL-28 melanoma
# SK-MEL-5 melanoma = system: SK-MEL-5 melanoma
# SK-OV-3 ovarian = system: SK-OV-3 ovarian
# SN12C renal = system: SN12C renal
# SNB-19 CNS = system: SNB-19 CNS
# SNB-75 CNS = system: SNB-75 CNS
# SR leukemia = system: SR leukemia
# SW-620 colon = system: SW-620 colon
# T-47D breast = system: T-47D breast
# TK-10 renal = system: TK-10 renal
# U251 CNS = system: U251 CNS
# UACC-257 melanoma = system: UACC-257 melanoma
# UACC-62 melanoma = system: UACC-62 melanoma
# UO-31 renal = system: UO-31 renal
smiles,measurement,setting,value
CN(C)c1ccc2nc3ccc(N)cc3[n+](-c3ccccc3)c2c1,GI50,786-0 renal,10.9 µM and 2.19 µM
same,TGI,786-0 renal,33.6 µM and 49.2 µM
same,GI50,A498 renal,3.94 µM and 19.6 µM
same,TGI,A498 renal,37.8 µM and > 100 µM
same,TGI,A549 NSCLC,> 100 µM and 11.6 µM
same,TGI,ACHN renal,76.9 µM and 31.8 µM
same,GI50,BT-549 breast,2.46 µM and 0.584 µM
same,TGI,BT-549 breast,14.2 µM and 61.9 µM
same,TGI,CAKI-1 renal,52.8 µM and 7.47 µM
same,GI50,CCRF-CEM leukemia,4.09 µM and 1.25 µM
same,TGI,CCRF-CEM leukemia,> 100 µM and 21.7 µM
same,GI50,COLO 205 colon,0.759 µM and 0.598 µM
same,TGI,COLO 205 colon,2.99 µM and 2.75 µM
same,GI50,DU-145 prostate,5.32 µM and 1.95 µM
same,TGI,DU-145 prostate,33 µM and 3.96 µM
same,GI50,EKVX NSCLC,1.39 µM and 0.87 µM
same,TGI,EKVX NSCLC,23.1 µM and 23 µM
same,GI50,HCC-2998 colon,1.87 µM and 9.25 µM
same,TGI,HCC-2998 colon,16.1 µM and 41.8 µM
same,GI50,HCT-116 colon,2.89 µM and 0.42 µM
same,TGI,HCT-116 colon,20.4 µM and 2.08 µM
same,TGI,HCT-15 colon,> 100 µM and 24 µM
same,GI50,HL-60(TB) leukemia,0.578 µM
same,TGI,HL-60(TB) leukemia,15.9 µM
same,GI50,HOP-62 NSCLC,2.31 µM and 2.92 µM
same,TGI,HOP-62 NSCLC,18.9 µM and 14.4 µM
same,GI50,HOP-92 NSCLC,1.85 µM
same,TGI,HOP-92 NSCLC,8.24 µM
same,GI50,HS 578T breast,3.24 µM and 2.93 µM
same,TGI,HS 578T breast,28 µM and 56.2 µM
same,GI50,HT29 colon,2.74 µM and 3.19 µM
same,TGI,HT29 colon,16.1 µM and 16.2 µM
same,GI50,IGROV1 ovarian,3.31 µM and 1.74 µM
same,TGI,IGROV1 ovarian,39.3 µM and 5.53 µM
same,GI50,K-562 leukemia,1.51 µM and 0.424 µM
same,TGI,K-562 leukemia,> 100 µM and 68.7 µM
same,GI50,KM12 colon,1.75 µM and 1.51 µM
same,TGI,KM12 colon,10.2 µM and 26.1 µM
same,GI50,LOX IMVI melanoma,2.65 µM and 0.515 µM
same,TGI,LOX IMVI melanoma,18.3 µM
same,GI50,MALME-3M melanoma,1.57 µM and 0.56 µM
same,TGI,MALME-3M melanoma,10.1 µM and 4.59 µM
same,GI50,MCF7 breast,0.519 µM and 0.369 µM
same,TGI,MCF7 breast,30.3 µM and 3.15 µM
same,GI50,MDA-MB-231 breast,4.61 µM and 0.492 µM
same,TGI,MDA-MB-231 breast,31.5 µM and 17.1 µM
same,GI50,MDA-MB-435,1.79 µM and 1.09 µM
same,TGI,MDA-MB-435,8.77 µM and 2.91 µM
same,GI50,MOLT-4 leukemia,5.14 µM and 0.703 µM
same,GI50,NCI-H226 lung,8.77 µM and 13 µM
same,TGI,NCI-H226 lung,42 µM and 70.1 µM
same,GI50,NCI-H23 lung,1.73 µM and 0.461 µM
same,TGI,NCI-H23 lung,19.8 µM and 5.1 µM
same,GI50,NCI-H460 lung,2.53 µM and 1.9 µM
same,TGI,NCI-H460 lung,11.4 µM and 11.2 µM
same,GI50,NCI-H522 lung,1.72 µM
same,TGI,NCI-H522 lung,10.5 µM
same,TGI,NCI/ADR-RES ovarian,> 100 µM and 11.9 µM
same,GI50,OVCAR-3 ovarian,0.474 µM and 0.317 µM
same,TGI,OVCAR-3 ovarian,9.02 µM and 12.7 µM
same,GI50,OVCAR-4 ovarian,0.396 µM and 0.28 µM
same,GI50,OVCAR-5 ovarian,13.3 µM
same,TGI,OVCAR-5 ovarian,> 81.7 µM
same,GI50,OVCAR-8 ovarian,2.02 µM and 1.07 µM
same,TGI,OVCAR-8 ovarian,> 66 µM and 7.69 µM
same,TGI,PC-3 prostate,31.2 µM and 3.22 µM
same,GI50,RPMI-8226 leukemia,0.482 µM and 0.177 µM
same,TGI,RPMI-8226 leukemia,7.4 µM and 10 µM
same,GI50,RXF 393 renal,16.3 µM and 10.8 µM
same,TGI,RXF 393 renal,67.5 µM and 26.6 µM
same,GI50,SF-268 CNS,1.94 µM and 1.7 µM
same,TGI,SF-268 CNS,20.9 µM and 19.7 µM
same,GI50,SF-295 CNS,1.75 µM and 0.584 µM
same,TGI,SF-295 CNS,7.41 µM and 24.4 µM
same,GI50,SF-539 CNS,2.61 µM and 0.332 µM
same,TGI,SF-539 CNS,13.5 µM and 6.59 µM
same,GI50,SK-MEL-2 melanoma,2.39 µM and 1.74 µM
same,TGI,SK-MEL-2 melanoma,6.16 µM and 11.1 µM
same,GI50,SK-MEL-28 melanoma,3.76 µM and 7.38 µM
same,TGI,SK-MEL-28 melanoma,20 µM and 37.7 µM
same,GI50,SK-MEL-5 melanoma,1.07 µM and 0.255 µM
same,TGI,SK-MEL-5 melanoma,3.02 µM and 0.827 µM
same,GI50,SK-OV-3 ovarian,18.2 µM and 4.73 µM
same,TGI,SK-OV-3 ovarian,67.3 µM and > 100 µM
same,GI50,SN12C renal,1.92 µM and 1.34 µM
same,TGI,SN12C renal,46 µM and 10.4 µM
same,GI50,SNB-19 CNS,1.69 µM
same,TGI,SNB-19 CNS,47.1 µM
same,GI50,SNB-75 CNS,2.44 µM and 2.8 µM
same,TGI,SNB-75 CNS,17 µM and 9.52 µM
same,GI50,SR leukemia,2.44 µM and 0.533 µM
same,GI50,SW-620 colon,2.98 µM and 1.18 µM
same,TGI,SW-620 colon,31 µM and 12.2 µM
same,GI50,T-47D breast,0.457 µM and 0.662 µM
same,TGI,T-47D breast,6.5 µM and 21 µM
same,GI50,TK-10 renal,3.87 µM and 2.48 µM
same,TGI,TK-10 renal,27.4 µM and 28.4 µM
same,GI50,U251 CNS,1.35 µM and 0.64 µM
same,TGI,U251 CNS,34.4 µM and 6.5 µM
same,GI50,UACC-257 melanoma,0.757 µM and 0.705 µM
same,TGI,UACC-257 melanoma,> 25.2 µM and 3.33 µM
same,GI50,UACC-62 melanoma,2.04 µM and 1.85 µM
same,TGI,UACC-62 melanoma,13 µM and 10.3 µM
same,GI50,UO-31 renal,23.6 µM and 4.98 µM
same,TGI,UO-31 renal,> 100 µM and 24.8 µM
